In EP4509511A1, “SUBSTITUTED SPIRO-ISOXAZOLINYL LACTAMS, SALTS THEREOF AND THEIR USE AS HERBICIDALLY ACTIVE SUBSTANCES” (Bayer Aktiengesellschaft, priority 2023, dated 2025):

Columns and labels:
POAAN [1] = assay: Herbicidal pre-emergence action - Part I; type: in vivo, Poa annua; conditions: visual grading after ca. 3 weeks vs untreated controls
Outline: (§1)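 Visual % injury, ~3 weeks post-application, relative to untreated pots. Treatment: aqueous WP/EC preparation with 0.5% additive sprayed pre-emergence on soil at 600 l/ha, application rate 1280 g/ha or less.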

VERPE [2] = assay: Herbicidal post-emergence action - Part II; type: in vivo, Veronica persica
Outline: (§2)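 Post-emergence greenhouse test: weeds and crops in sandy loam sprayed at single-leaf stage, 2–3 weeks after sowing, with WP or EC formulations in water plus 0.5% additive at 600 l water/ha. Rates 320 g/ha or below. Visual rating after ca. 3 weeks versus untreated controls, % effect (100% = plants dead).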

AMARE [3] = assay: Herbicidal pre-emergence action - Part I; type: in vivo, Amaranthus retroflexus; conditions: for pre-emergence activity at 320g/ha against AMARE in % / pre-emergence activity at 1280g/ha against AMARE in %: visual grading after ca. 3 weeks vs untreated controls
Outline: as §1

ABUTH = assay: Herbicidal post-emergence action - Part II; type: in vivo, Abutilon theophrasti; conditions: 320 g/ha; Table E1c
Outline: as §2

ALOMY [4] = assay: Herbicidal pre-emergence action - Part II; type: in vivo, Alopecurus myosuroides; conditions: visual grading after ca. 3 weeks vs untreated controls
From the text: Seeds of mono- and dicotyledonous weed plants and crop plants were sown, in plastic or organic planting pots, in sandy loam and covered with soil. The compounds according to the invention, formulated in the form of wettable powders (WP) or as emulsifiable concentrates (EC), were applied to the surface of the covering soil as aqueous suspension or emulsion, with the addition of 0.5% of an additive, at an application rate of 600 1 of water/ha (converted). Following treatment, the pots were placed in a greenhouse and kept under optimum growth conditions for the test plants. The visual grading of the damage to the test plants was carried out after ca. 3 weeks in comparison to untreated controls (herbicidal effect in percent (%): 100% effect = plants have died off, 0% effect = as control plants). Tables C1 to C12 below show the effects of selected compounds of the general formula (I) according to table 1 on various harmful plants and an application rate corresponding to 320 g/ha or below obtained by the experimental procedure mentioned above. Table C1: pre-emergence activity at 320g/ha against ABUTH in %

POAAN [5] = assay: Herbicidal post-emergence action - Part I; type: in vivo, Poa annua; conditions: 1280 g/ha, one-leaf stage, rated visually after about 3 weeks vs untreated controls
Outline: (§3)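 Greenhouse weeds grown in sandy loam were sprayed post-emergence at the one-leaf stage, 2-3 weeks after sowing. Compounds were applied as WP or EC in water with 0.5% additive at 600 L/ha, at 1280 g/ha or below. Visual damage was rated after about 3 weeks versus untreated plants (0-100%).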

ALOMY [6] = assay: Herbicidal pre-emergence action - Part I; type: in vivo, Alopecurus myosuroides; conditions: visual grading after ca. 3 weeks vs untreated controls
From the text: (§4) Seeds of mono- and dicotyledonous weed plants were sown in plastic pots (double sowings with one species of mono- and one species of dicotyledonous weed plants per pot), in sandy loam, and covered with soil. The compounds according to the invention, formulated in the form of wettable powders (WP) or as emulsifiable concentrates (EC), were applied to the surface of the covering soil as aqueous suspension or emulsion, with the addition of 0.5% of an additive, at an application rate of 600 1 of water per hectare (converted). Following treatment, the pots were placed in a greenhouse and kept under optimum growth conditions for the test plants. The visual grading of the damage to the test plants was carried out after ca. 3 weeks in comparison to untreated controls (herbicidaleffectinpercent(%):100%effect=plantshavediedoff,0%effect=ascontrolplants). [formula]
(§5) Tables A1 to A12, below, show the effects of selected compounds of the general formula (I) according to table 1 on various harmful plants and an application rate corresponding to 1280 g/ha or below obtained by the experimental procedure mentioned above. Table A1: pre-emergence activity at 1280g/ha against ABUTH in %

MATIN = assay: Herbicidal post-emergence action - Part I; type: in vivo, Matricaria inodora; conditions: one-leaf stage, rated visually after about 3 weeks vs untreated controls
Outline: as §3

AMARE [7] = assay: Herbicidal post-emergence action - Part I; type: in vivo, Amaranthus retroflexus; conditions: one-leaf stage, rated visually after about 3 weeks vs untreated controls
Outline: as §3

VIOTR = assay: Herbicidal post-emergence action - Part II; type: in vivo, Viola tricolor; conditions: 320 g/ha; Table E9c
Outline: as §2

BRSNW = assay: Pre-emergence effects on crop plants; type: in vivo, Brassica napus; conditions: 80 g/ha; Table D5; crop plant
From the text: Seeds of mono- and dicotyledonous weed plants and crop plants were sown, in plastic or organic planting pots, in sandy loam and covered with soil. The compounds according to the invention, formulated in the form of wettable powders (WP) or as emulsifiable concentrates (EC), were applied to the surface of the covering soil as aqueous suspension or emulsion, with the addition of 0.5% of an additive, at an application rate of 600 1 of water/ha (converted). Following treatment, the pots were placed in a greenhouse and kept under optimum growth conditions for the test plants. The visual grading of the damage to the test plants was carried out after ca. 3 weeks in comparison to untreated controls (herbicidal effect in percent (%): 100% effect = plants have died off, 0% effect = as control plants). Tables D1 to D5 below show the effects of various compounds of the general formula (I) according to Table 1 on various crop plants and an application rate corresponding to 320 g/ha or below obtained by the experimental procedure mentioned above in Biological Examples, Section C. Table […]: pre-emergence activity at 320g/ha against ZEAMX in %

VERPE [8] = assay: Herbicidal pre-emergence action - Part I; type: in vivo, Veronica persica; conditions: visual grading after ca. 3 weeks vs untreated controls
From the text: as §4, §5

In the case of `Cc1ccsc1C1=NOC2(CCCN(Cc3c(F)cccc3F)C2=O)C1` (racemic) [Compound I-2], the “pre-emergence activity at 80g/ha and against POAAN in %” value (POAAN [1]; 80 g/ha) was 100%, the “pre-emergence activity at 320g/ha and against POAAN in %” value (POAAN [1]) was 100% and the “pre-emergence activity at 1280g/ha and against POAAN in %” value (POAAN [1]) was 100%. The “post-emergence activity against VERPE” value (VERPE [2]; 80 g/ha, Table E8c) was 90%, the “post-emergence activity against VERPE” value (VERPE [2]; 320 g/ha, Table E8d) was 90% and the “pre-emergence activity at 320g/ha against AMARE in %” value (AMARE [3]) was 90%. The “pre-emergence activity at 1280g/ha against AMARE in %” value (AMARE [3]) was 90%, the “post-emergence activity against ABUTH” value (ABUTH) was 80% and the “pre-emergence activity at 320g/ha against ALOMY in %” value (ALOMY [4]) was 90%. The “post-emergence activity at 1280g/ha against POAAN in %” value (POAAN [5]) was 90%, the “pre-emergence activity at 1280g/ha against ALOMY in %” value (ALOMY [6]) was 90% and the “post-emergence activity at 320g/ha against MATIN in %” value (MATIN) was 90%. For the same compound, the “post-emergence activity at 1280g/ha against MATIN in %” value (MATIN) was 90%, the “post-emergence activity at 1280g/ha against AMARE in %” value (AMARE [7]) was 90% and the “post-emergence activity against VIOTR” value (VIOTR) was 80%.
With `O=C1N(Cc2ccccc2F)CCC12CC(c1c(F)cccc1F)=NO2` (racemic) [Compound I-10] the “pre-emergence activity at 320g/ha and against POAAN in %” value (POAAN [1]) was 90%, the “pre-emergence activity at 1280g/ha and against POAAN in %” value (POAAN [1]) was 100% and the “pre-emergence activity against BRSNW” value (BRSNW) was 20%. The “pre-emergence activity at 80g/ha against AMARE in %” value (AMARE [3]; 80 g/ha, 504 h) was 90%, the “pre-emergence activity at 320g/ha against AMARE in %” value (AMARE [3]) was 90% and the “pre-emergence activity at 1280g/ha against AMARE in %” value (AMARE [3]) was 90%. For the same compound, the “pre-emergence activity at 320g/ha against ALOMY in %” value (ALOMY [4]) was 80%, the “pre-emergence activity at 1280g/ha against VERPE in %” value (VERPE [8]) was 90% and the “post-emergence activity at 320g/ha against MATIN in %” value (MATIN) was 90%. For the same compound, the “post-emergence activity at 1280g/ha against MATIN in %” value (MATIN) was 90%, the “post-emergence activity at 80g/ha against AMARE in %” value (AMARE [7]; 80 g/ha) was 90% and the “post-emergence activity at 320g/ha against AMARE in %” value (AMARE [7]; 320 g/ha) was 90%. The “post-emergence activity at 1280g/ha against AMARE in %” value (AMARE [7]) was 90%.
For `Cc1ccsc1C1=NOC2(CCN(Cc3c(F)cccc3F)C2=O)C1` (racemic) [Compound I-16, 7-(2,6-Difluorobenzyl)-3-(3-methyl-2-thienyl)-1-oxa-2,7-diazaspiro[4.4]non-2-en-6-one], the “pre-emergence activity at 320g/ha and against POAAN in %” value (POAAN [1]) was 100%, the “pre-emergence activity at 1280g/ha and against POAAN in %” value (POAAN [1]) was 100% and the “pre-emergence activity against BRSNW” value (BRSNW) was 20%. The “pre-emergence activity at 320g/ha against AMARE in %” value (AMARE [3]) was 90%, the “pre-emergence activity at 1280g/ha against AMARE in %” value (AMARE [3]) was 90% and the “pre-emergence activity at 320g/ha against ALOMY in %” value (ALOMY [4]) was 80%. For the same compound, the “pre-emergence activity at 1280g/ha against VERPE in %” value (VERPE [8]) was 100%, the “post-emergence activity at 1280g/ha against POAAN in %” value (POAAN [5]) was 90% and the “pre-emergence activity at 1280g/ha against ALOMY in %” value (ALOMY [6]) was 90%. For the same compound, the “post-emergence activity at 1280g/ha against MATIN in %” value (MATIN) was 90%.
